Data reported in patent US8609610B2, “Inhibitors of the trypsin-like site of the proteasome and methods of use thereof” (Trustees of Dartmouth College, priority 2011, dated 2013).
Where two headings read alike, the source gives them in different places.

Legend:
β2i proteasome subunit = target: T1, β2i proteasome subunit (Mus musculus, UniProt O35955+Q9R1P1); assay: Competition assay in EL-4 cell lysate with MV151; format: biochemical; details: EL-4 lysate
T1 construct: Whole cell lysates of HEK-293T or EL-4 cells were made by sonication; endogenous in cells; host or cells: EL-4
Experimental: Whole cell lysates of HEK-293T or EL-4 cells were made by sonication in 3 volumes of lysis buffer containing 50 mM Tris pH 7.5, 1 mM DTT, 5 mM MgCl2, 250 mM sucrose, 2 mM ATP, 0.025% digitonin. Protein concentration was determined by the Bradford assay. Cell lysates (13.5 μg total protein for HEK lysates and 9 μg total protein for EL-4 lysates) were exposed to the inhibitors for 1 hour at 37° C. prior to incubation with MV151 (0.5 μM) or BODIPY-TMR-epoxomicin (0.5 μM) for an additional 1 hour at 37° C. Reaction mixtures were boiled with Laemmli's buffer containing (3-mercaptoethanol for 5 minutes before being resolved by 12.5% SDS-PAGE. In-gel detection of residual proteasome activity was performed in the wet gel slabs directly on the TYPHOON Variable Mode Imager (Amersham Biosciences) using the Cy3/Tamra settings (λex 532 nm, λem 560 nm) to detect MV151, BODIPY-TMR-epoxomicin and Cy2/Fam settings (λex 488 nm, λem 520 nm) to detect compounds 39 and 59.
The inhibition potential of the inhibitors for each of the catalytically active subunits was assessed in competition assays employing extracts of human embryonic kidney cells (HEK-293T) and mouse lymphoma cells (EL-4) in combination with the fluorescent broad spectrum proteasome probe MV151 (Verdoes, et al. (2006) Chem. Biol. 13:1217-1226). […]

β2 proteasome subunit = target: T2, β2 proteasome subunit (Mus musculus, UniProt P70195+Q9R1P1); assay: Competition assay in EL-4 cell lysate with MV151; format: biochemical; details: 0.5 μM
T2 construct: Whole cell lysates of HEK-293T or EL-4 cells were made by sonication; endogenous in cells; host or cells: EL-4
Excerpt: Competitive inhibition of a proteasome active site is reflected by the disappearance of the corresponding band on a gel.

β5 proteasome subunit = target: T3, β5 proteasome subunit (Homo sapiens, UniProt P20618+P28074); assay: Competition assay in HEK-293T cell lysate with MV151; format: biochemical; details: HEK-293T lysate, 50 μM
T3 construct: Whole cell lysates of HEK-293T or EL-4 cells were made by sonication; endogenous in cells; host or cells: HEK-293T
Summary of the method: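 HEK-293T (13.5 μg protein, human β5) or EL-4 (9 μg protein, mouse β2i) lysates were treated with inhibitors for 1 h at 37 °C, then labelled with 0.5 μM MV151 for 1 h. Residual subunit activity was read as in-gel fluorescence after SDS-PAGE, with loss of the band indicating competition.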

Cathepsin B, H, L, S = assay: Cathepsin activity with pan-cathepsin substrate Z-FR-amc; format: cell-based; details: NCI-H929 cells, 6 hour treatment
Summary of the method: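 Extracts of cytosol-less cells were used throughout. Cathepsins B, H, L and S were assayed with the fluorogenic Z-FR-amc substrate at pH 6.0. Cathepsin D was measured with the SENSOLYTE 520 fluorometric kit.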

[1] = target: caspase-like site of 26S proteasomes (Oryctolagus cuniculus, UniProt A0A5F9DQW2); assay: Inhibition of purified 26S proteasomes, substrate Ac-nLPnLD-amc; format: biochemical, rabbit; details: >>30 no inhibition at 30 μM, >30 inhibition between 10 and 50% at 30 μM, read-out: IC50 for sites in 26S proteasomes: Casp-L
[2] = target: T4, caspase-like sites (β1) of proteasome in MM cells (Homo sapiens, UniProt P28072+Q99436); assay: PROTEASOMEGLO assay of proteasome inhibition in MM cells; format: cell-based; details: read-out: IC50 for sites: Casp-L, 6 hours, >>30 no inhibition at 30 μM, >30 inhibition 10-50% at 30 μM
T4 sequence (P28072 35-239): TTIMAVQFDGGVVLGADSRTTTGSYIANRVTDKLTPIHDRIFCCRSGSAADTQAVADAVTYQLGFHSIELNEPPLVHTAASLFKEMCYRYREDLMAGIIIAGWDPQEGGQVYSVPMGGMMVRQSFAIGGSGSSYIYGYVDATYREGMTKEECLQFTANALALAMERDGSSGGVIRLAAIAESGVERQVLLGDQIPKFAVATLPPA
T4 sequence (Q99436 44-277): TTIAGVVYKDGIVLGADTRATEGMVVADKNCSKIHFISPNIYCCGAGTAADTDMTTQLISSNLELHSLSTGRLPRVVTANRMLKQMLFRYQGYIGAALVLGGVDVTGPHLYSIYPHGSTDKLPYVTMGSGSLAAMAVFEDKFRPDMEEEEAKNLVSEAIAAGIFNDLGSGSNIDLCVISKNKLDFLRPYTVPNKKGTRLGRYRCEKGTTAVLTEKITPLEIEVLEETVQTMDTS

[3] = target: β2 (trypsin-like site) of proteasome in HEK-293T cells (Homo sapiens, UniProt P49720+Q99436); assay: Competition assay in living HEK-293T cells with activity-based probe; format: cell-based; details: 5 μM
Experimental: (§1) Proteasome inhibition in MM cells was measured with luminogenic substrates using PROTEASOMEGLO assay (Promega). […] An aliquot of culture was pelleted and medium was removed and replaced with PBS. The resulting cell suspension was mixed with luminogenic substrates in the manufacturer-provided lysis/assay buffer. After 3 minutes mixing on an orbital shaker, the plate was incubated in the dark for additional 17 minutes, followed by the measurements of the luminescence, performed in triplicate for each substrate/data point. Data were analyzed as for purified proteasomes. […] Cells (1×10^6 per well of a 6-well plate) were incubated with the inhibitors for 4 hours at 37° C. and this was followed by a 2 hour incubation with 5 μM BODIPY-TMR-epoxomicin. Subsequently, the medium was removed and the cells were washed with PBS and harvested. […] The supernatant was collected and the protein concentration was determined by the Bradford assay, and used to normalize gel loading. The samples were analysed by SDS-PAGE and fluorescent densitometry as described for competition experiment in cell lysates. IC50 values were calculated from three independent experiments using […] PRISM software.
(§2) Human embryonic kidney cells (some 1×10^6) were cultured in 6-well plates in DMEM containing 10% fetal calf serum, 10 units/mL penicillin and 10 μg/mL streptomycin in a 7% CO2 humidified incubator at 37° C. overnight. Part of the medium was taken and to this was added the appropriate inhibitor in DMSO (1 μL of a 1,000× stock solution), after which the medium was added to the cells. The cells were incubated with the inhibitors for 4 hours at 37° C. and this was followed by addition of MV151 (1 μL of a 5 mM stock solution in DMSO) and incubation for 2 hours at 37° C. Next, the medium was removed and the cells were washed with PBS and harvested. […] The supernatant was collected and the protein concentration was determined by the Bradford assay. All samples were normalized to the same protein concentration with lysis buffer.

[4] = target: β5 (chymotrypsin-like site) of proteasome in HEK-293T cells (Homo sapiens, UniProt P20618+P28074); assay: as above; format: cell-based; details: concentrations up to 50 μM
Experimental: as §1, §2

[5] = target: T5, trypsin-like sites (β2) of proteasome in MM cells (Homo sapiens, UniProt Q99436); assay: PROTEASOMEGLO assay of proteasome inhibition in MM cells; format: cell-based; details: 6 hours, >>30 no inhibition at 30 μM, >30 inhibition 10-50% at 30 μM, read-out: IC50 for sites: Tr-L
T5 construct: endogenous in cells; host or cells: NCI-H929, RPMI-8226 and other MM cell lines
T5 sequence (Q99436 44-277): T4 sequence (Q99436 44-277)

[6] = test system: trypsin-like sites (β2) of proteasome in MM cells; assay: as above; format: cell-based
[7] = target: chymotrypsin-like activity of yeast 20S proteasome (Saccharomyces cerevisiae, UniProt P23724+P30656); assay: Yeast 20S core particle activity, substrate Suc-LLVY-amc; details: read-out: IC50 for yeast 20S proteasome: Chym-L
Experimental: Proteasomes were pre-incubated with inhibitors for minutes, and inhibitors were present during activity assays. Fluorescence was measured at λexc=360, λem=460 nm using a Varian Cary Eclipse Fluorescence Spectrophotometer (Agilent Technologies).

Sequence of caspase-like site of 26S proteasomes (A0A5F9DQW2 1-212): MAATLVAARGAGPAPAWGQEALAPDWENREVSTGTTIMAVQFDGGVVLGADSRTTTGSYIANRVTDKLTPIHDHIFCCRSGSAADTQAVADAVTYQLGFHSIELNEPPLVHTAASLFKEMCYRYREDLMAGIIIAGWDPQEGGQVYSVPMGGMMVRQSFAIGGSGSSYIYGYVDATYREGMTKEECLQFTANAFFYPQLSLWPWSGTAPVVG

Cc1c(O)cccc1C(=O)N[C@H](C(=O)N[C@@H](CO)C(=O)N[C@H](/C=C/S(C)(=O)=O)Cc1ccc(CN)cc1)C(C)C [Compound 48, HMB-Val-Ser-Phe (4-CH2NH2)-VS]
concentration at which inhibition of β2i starts (β2i proteasome subunit): 5 µM
inhibition of β2 in EL-4 lysate (β2 proteasome subunit): almost completely blocked
inhibition of β5 in cell lysate (β5 proteasome subunit): Only a part of the β5 activity was inhibited
inhibition of cathepsins (Z-FR-amc) (Cathepsin B, H, L, S): did not cause any inhibition of cathepsins
IC50 [1]: 11 µM
IC50 ([2]; NCI-H929 cells): > 30 µM
IC50 ([2]; RPMI-8226 cells): > 30 µM
β2 band in living cells [3]: almost disappeared
β5 in living cells [4]: not affected at all
IC50 ([5]; NCI-H929 cells): 200 nM
IC50 ([5]; RPMI-8226 cells): 3200 nM
difference in IC50 for trypsin-like activity between NCI-H929 and RPMI-8226 [6]: greater than ten-fold
IC50 [7]: 19.3 µM
